Data reported in US10059713B2 (Takeda Pharmaceutical Company Limited, priority 2014, dated 2018).

The molecules below were run against human GPR43 (Homo sapiens (Human), UniProt O15552) (assay: Ca-Flux functional assay: determination of agonist/positive allosteric modulator (PAM) activity). Settings: CHO-K1 Gα16 cells stably expressing human GPR43; compound added with EC20 sodium acetate; intracellular Ca2+ by FLIPR; does not distinguish agonist from PAM.
Type: cell-based
Procedure, shortened: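 CHO-K1 Gα16 cells stably expressing human GPR43, loaded with Calcium 5 dye 1 h; compounds (10-point half-log from 10 μM) added with sodium acetate at EC20. FLIPR calcium signal gave EC50, two wells per point; agonists and PAMs not distinguished.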

human GPR43, sequence (O15552 whole entry): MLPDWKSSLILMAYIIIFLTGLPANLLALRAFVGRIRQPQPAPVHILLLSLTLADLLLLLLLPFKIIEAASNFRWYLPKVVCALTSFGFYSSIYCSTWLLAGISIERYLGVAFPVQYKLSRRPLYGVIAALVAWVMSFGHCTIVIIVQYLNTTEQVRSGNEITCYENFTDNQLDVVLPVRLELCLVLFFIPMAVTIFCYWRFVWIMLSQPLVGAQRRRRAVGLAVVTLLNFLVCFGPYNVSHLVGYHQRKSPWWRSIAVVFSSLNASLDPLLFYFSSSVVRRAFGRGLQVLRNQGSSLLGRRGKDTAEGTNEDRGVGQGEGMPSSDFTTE

Row | EC50 [µM] | Structure (SMILES)
1 | 0.798 | CN(c1ncnc2c(S(=O)(=O)c3ccccc3)c(N)[nH]c12)C1CCOCC1 [Example 115, 7-(benzenesulfonyl)-4-N-methyl-4-N-(oxan-4-yl)-5H-pyrrolo[3,2-d]pyrimidine-4,6-diamine]
2 | 1.64 | Nc1[nH]c2c(OC3CCOCC3)ncnc2c1S(=O)(=O)c1ccccc1 [Example 166, 7-(benzenesulfonyl)-4-(oxan-4-yloxy)-5H-pyrrolo[3,2-d]pyrimidin-6-amine]
3 | 0.025 | COc1ccc(S(=O)(=O)c2c(N)[nH]c3c(C4=CCCCC4)ncnc23)cc1 [Example 4, 4-(cyclohex-1-en-1-yl)-7-[(4-methoxybenzene)sulfonyl]-5H-pyrrolo[3,2-d]pyrimidin-6-amine]
4 | 1.15 | Nc1[nH]c2c(N3CCCOCC3)ncnc2c1S(=O)(=O)c1ccccc1 [Example 82, 7-(benzenesulfonyl)-4-(1,4-oxazepan-4-yl)-5H-pyrrolo[3,2-d]pyrimidin-6-amine]
5 | 0.007 | Cc1nc(N2CCOC(C)C2)c2[nH]c(N)c(S(=O)(=O)c3cc(F)ccc3F)c2n1 (stereo not drawn) [Example 229, 7-(2,5-difluorobenzenesulfonyl)-2-methyl-4-(2-methylmorpholin-4-yl)-5H-pyrrolo[3,2-d]pyrimidin-6-amine]
6 | 0.065 | Cc1nc(OC(C)C2CCCCC2)c2[nH]c(N)c(S(=O)(=O)c3ccccc3)c2n1 (stereo not drawn) [Example 255, 7-(benzenesulfonyl)-4-(1-cyclohexylethoxy)-2-methyl-5H-pyrrolo[3,2-d]pyrimidin-6-amine]
7 | 0.006 | Cc1nc(N2C[C@@H](C)OC[C@H]2C)c2[nH]c(N)c(S(=O)(=O)c3ccccc3)c2n1 [Example 217, 7-(benzenesulfonyl)-4-[(2R,5R)-2,5-dimethylmorpholin-4-yl]-2-methyl-5H-pyrrolo[3,2-d]pyrimidin-6-amine]
8 | 0.814 | CC1CN(c2ncnc3c(S(=O)(=O)CCc4ccccc4)c(N)[nH]c23)CCO1 (stereo not drawn) [Example 153, 4-(2-methylmorpholin-4-yl)-7-(2-phenylethanesulfonyl)-5H-pyrrolo[3,2-d]pyrimidin-6-amine]
9 | 0.061 | CCN(CC)c1ncnc2c(S(=O)(=O)c3ccccc3)c(N)[nH]c12 [Example 94, 7-(benzenesulfonyl)-4-N,4-N-diethyl-5H-pyrrolo[3,2-d]pyrimidine-4,6-diamine]
10 | 0.134 | Nc1[nH]c2c(OCc3ccccc3)ncnc2c1S(=O)(=O)c1ccccc1 [Example 168, 7-(benzenesulfonyl)-4-(benzyloxy)-5H-pyrrolo[3,2-d]pyrimidin-6-amine]
11 | 1.11 | Nc1[nH]c2c(N3CCCC(n4cccn4)C3)ncnc2c1S(=O)(=O)c1ccccc1 (stereo not drawn) [Example 114, 7-(benzenesulfonyl)-4-[3-(1H-pyrazol-1-yl)piperidin-1-yl]-5H-pyrrolo[3,2-d]pyrimidin-6-amine]
12 | 0.003 | Cc1nc(N2CCOC(C)(C)C2C)c2[nH]c(N)c(S(=O)(=O)c3ccccc3F)c2n1 (stereo not drawn) [Example 8, 7-(2-fluorobenzenesulfonyl)-2-methyl-4-(2,2,3-trimethylmorpholin-4-yl)-5H-pyrrolo[3,2-d]pyrimidin-6-amine]
13 | 0.034 | Nc1[nH]c2c(OC3CCC(F)(F)CC3)ncnc2c1S(=O)(=O)c1ccccc1 [Example 211, 7-(benzenesulfonyl)-4-[(4,4-difluorocyclohexyl)oxy]-5H-pyrrolo[3,2-d]pyrimidin-6-amine]
14 | 0.051 | Cc1nc(OC(C)C)c2[nH]c(N)c(S(=O)(=O)c3ccccc3)c2n1 [Example 242, 7-(benzenesulfonyl)-2-methyl-4-(propan-2-yloxy)-5H-pyrrolo[3,2-d]pyrimidin-6-amine]
15 | 0.08 | COc1ccc(S(=O)(=O)c2c(N)[nH]c3c(C4CCCCC4)ncnc23)cc1 [Example 5, 4-cyclohexyl-7-[(4-methoxybenzene)sulfonyl]-5H-pyrrolo[3,2-d]pyrimidin-6-amine]
16 | 0.008 | Cc1nc(N2CCOC3(CCC3)C2)c2[nH]c(N)c(S(=O)(=O)c3ccccc3F)c2n1 [Example 237, 7-(2-fluorobenzenesulfonyl)-2-methyl-4-{5-oxa-8-azaspiro[3.5]nonan-8-yl}-5H-pyrrolo[3,2-d]pyrimidin-6-amine]
17 | 0.676 | Cc1cc(F)ccc1S(=O)(=O)c1c(N)[nH]c2c(N3CCOC(C)C3)ncnc12 (stereo not drawn) [Example 178, 7-(4-fluoro-2-methylbenzenesulfonyl)-4-(2-methylmorpholin-4-yl)-5H-pyrrolo[3,2-d]pyrimidin-6-amine]
18 | 0.211 | CC1COCCN1c1ncnc2c(S(=O)(=O)c3ccccc3)c(N)[nH]c12 (stereo not drawn) [Example 54, 7-(benzenesulfonyl)-4-(3-methylmorpholin-4-yl)-5H-pyrrolo[3,2-d]pyrimidin-6-amine]
19 | 2.41 | Nc1[nH]c2c(-c3ccncc3)ncnc2c1S(=O)(=O)c1ccccc1 [Example 66, 7-(benzenesulfonyl)-4-(pyridin-4-yl)-5H-pyrrolo[3,2-d]pyrimidin-6-amine]

Row | EC50 [µM] | Structure (SMILES)
20 | 0.358 | CC1(C)CCN(c2ncnc3c(S(=O)(=O)c4ccccc4)c(N)[nH]c23)C1 [Example 47]
21 | 6.82 | CCNc1ncnc2c(S(=O)(=O)c3ccccc3)c(N)[nH]c12 [Example 65, 7-(benzenesulfonyl)-4-N-ethyl-5H-pyrrolo[3,2-d]pyrimidine-4,6-diamine]
22 | 0.017 | CCC(CC)Oc1ncnc2c(S(=O)(=O)c3ccccc3)c(N)[nH]c12 [Example 213, 7-(benzenesulfonyl)-4-(pentan-3-yloxy)-5H-pyrrolo[3,2-d]pyrimidin-6-amine]
23 | 0.003 | COc1ccc(S(=O)(=O)c2c(N)[nH]c3c(N4CCO[C@@H](C)C4)nc(C)nc23)c(F)c1 [Example 233, 7-(2-fluoro-4-methoxybenzenesulfonyl)-2-methyl-4-[(2S)-2-methylmorpholin-4-yl]-5H-pyrrolo[3,2-d]pyrimidin-6-amine]
24 | 0.025 | Cc1nc(N2CCOC3(CCCC3)C2)c2[nH]c(N)c(S(=O)(=O)c3cccc(F)c3)c2n1 [Example 199, 7-(3-fluorobenzenesulfonyl)-2-methyl-4-{6-oxa-9-azaspiro[4.5]decan-9-yl}-5H-pyrrolo[3,2-d]pyrimidin-6-amine]
25 | 0.063 | Cc1nc(OC2CCOC(C)(C)C2)c2[nH]c(N)c(S(=O)(=O)c3ccccc3F)c2n1 (stereo not drawn) [Example 273, -[(2,2-dimethyloxan-4-yl)oxy]-7-(2-fluorobenzenesulfonyl)-2-methyl-5H-pyrrolo[3,2-d]pyrimidin-6-amine]
26 | 0.114 | Cc1nc(OCC(C)(C)C)c2[nH]c(N)c(S(=O)(=O)c3ccccc3)c2n1 [Example 250, 7-(benzenesulfonyl)-4-(2,2-dimethylpropoxy)-2-methyl-5H-pyrrolo[3,2-d]pyrimidin-6-amine]
27 | 0.031 | Cc1nc(OCC2CCC2)c2[nH]c(N)c(S(=O)(=O)c3ccccc3)c2n1 [Example 249, 7-(benzenesulfonyl)-4-(cyclobutylmethoxy)-2-methyl-5H-pyrrolo[3,2-d]pyrimidin-6-amine]
28 | 0.078 | COc1ccc(S(=O)(=O)c2c(N)[nH]c3c(C4=CCCCC4)ncnc23)cn1 [Example 43, 4-(cyclohex-1-en-1-yl)-7-(6-methoxypyridine-3-sulfonyl)-5H-pyrrolo[3,2-d]pyrimidin-6-amine]
29 | 0.004 | CC1CN(c2ncnc3c(S(=O)(=O)c4ccccc4)c(N)[nH]c23)CC(C)S1 (stereo not drawn) [Example 197, 7-(benzenesulfonyl)-4-(2,6-dimethylthiomorpholin-4-yl)-5H-pyrrolo[3,2-d]pyrimidin-6-amine]
30 | 0.162 | CN(CC(F)F)c1ncnc2c(S(=O)(=O)c3ccccc3)c(N)[nH]c12 [Example 96, 7-(benzenesulfonyl)-4-N-(2,2-difluoroethyl)-4 N-methyl-5H-pyrrolo[3,2-d]pyrimidine-4,6-diamine]
31 | 0.209 | COc1ccccc1CN(C)c1ncnc2c(S(=O)(=O)c3ccccc3)c(N)[nH]c12 [Example 92, 7-(benzenesulfonyl)-4-N-[(2-methoxyphenyl)methyl]-4-N-methyl-5H-pyrrolo[3,2-d]pyrimidine-4,6-diamine]
32 | 0.047 | Nc1[nH]c2c(N3CCCCC3)ncnc2c1S(=O)(=O)c1ccccc1 [Example 7, 7-(benzenesulfonyl)-4-(piperidin-1-yl)-5H-pyrrolo[3,2-d]pyrimidin-6-amine]
33 | 1.06 | CC(C)c1ncnc2c(S(=O)(=O)c3ccccc3)c(N)[nH]c12 [Example 15, 7-(benzenesulfonyl)-4-(propan-2-yl)-5H-pyrrolo[3,2-d]pyrimidin-6-amine]
34 | 1.97 | CN(c1ncnc2c(S(=O)(=O)c3ccccc3)c(N)[nH]c12)C1CCOC(C)(C)C1 (stereo not drawn) [Example 189, 7-(benzenesulfonyl)-4-N-(2,2-dimethyloxan-4-yl)-4-N-methyl-5H-pyrrolo[3,2-d]pyrimidine-4,6-diamine]
35 | 0.117 | N#CC1CN(c2ncnc3c(S(=O)(=O)c4ccccc4)c(N)[nH]c23)CCO1 (stereo not drawn) [Example 216, 4-[6-amino-7-(benzenesulfonyl)-5H-pyrrolo[3,2-d]pyrimidin-4-yl]morpholine-2-carbonitrile]
36 | 0.014 | Cc1nc(N2CCOC(C(F)(F)F)C2)c2[nH]c(N)c(S(=O)(=O)c3ccccc3)c2n1 (stereo not drawn) [Example 225, 7-(benzenesulfonyl)-2-methyl-4-[2-(trifluoromethyl)morpholin-4-yl]-5H-pyrrolo[3,2-d]pyrimidin-6-amine]
37 | 0.528 | Nc1[nH]c2c(C3=CCCCC3)nccc2c1S(=O)(=O)c1ccccc1 [Example 18, 3-(benzenesulfonyl)-7-(cyclohex-1-en-1-yl)-1H-pyrrolo[2,3-c]pyridin-2-amine]
38 | 0.041 | CN(Cc1cccc(Cl)c1)c1ncnc2c(S(=O)(=O)c3ccccc3)c(N)[nH]c12 [Example 90, 7-(benzenesulfonyl)-4-N-[(3-chlorophenyl)methyl]-4-N-methyl-5H-pyrrolo[3,2-d]pyrimidine-4,6-diamine]

Row | Structure (SMILES) | EC50 [µM]
39 | Cc1nc(OC2CCC2)c2[nH]c(N)c(S(=O)(=O)c3ccccc3F)c2n1 [Example 260, 4-cyclobutoxy-7-(2-fluorobenzenesulfonyl)-2-methyl-5H-pyrrolo[3,2-d]pyrimidin-6-amine] | 0.01
